# Source: patent US20260159499A1, “COMPOUND AS FAK INHIBITOR AND USE THEREOF” (WIGEN BIOMEDICINE TECHNOLOGY (SHANGHAI) CO., LTD., priority 2021, published 2026)
# pIC50: −log10 of the molar value.
# What was measured:
# FAK recombinant protein = FAK recombinant protein (Homo sapiens, UniProt Q05397); test: Inhibitory activity against FAK enzyme; type: biochemical; conditions: TK substrate, ATP
# Description: The compound serially diluted with DMSO and a FAK recombinant protein were mixed, and the mixture was left to stand at room temperature for 10 min. A biotin-labeled TK substrate (TK) and ATP were then added. […] After the mixture was incubated at room temperature for 1 h, the fluorescence intensity at 615 nm and 665 nm was measured. The ratio of the fluorescence intensity at 665 nm and 615 nm was calculated. The inhibition percentages and IC50 of the compounds were calculated compared to the DMSO control group.
# PC3 cells [1] = test: PC3 cell proliferation, 2D activity detection; type: cell-based, human; conditions: Homo sapiens, PC-3; PC3, 2D, 72 h, class symbol; read-out: 2D IC50 against PC3 cells
# Description: 2D activity detection: 1200 PC3 cells were seeded in a 96-well plate. After overnight adherence culture, the compound serially diluted was added. 72 h after addition, Cell Titer-Lumi (Beyotime C0068XL) was added to measure the ATP content in the cells. The growth of the cells was evaluated, and IC50 of the compounds against cell growth was calculated.
# PC3 cells [2] = test: PC3 cell proliferation, 3D activity detection; type: cell-based, human; conditions: Homo sapiens, PC-3, 336 h; PC3, 3D culture, 14 days, class symbol; read-out: 3D IC50 against PC3 cells
# Description: 3D activity detection: PC3 cells were seeded in a 96-well plate at 1200 cells/well, and 3D culture was performed. 14 days after the compound serially diluted was added, the growth of the cells was determined. The inhibition percentage and IC50 of the compound were calculated compared to the DMSO control group.
# Sequence of FAK recombinant protein (Q05397 whole entry, species assumed): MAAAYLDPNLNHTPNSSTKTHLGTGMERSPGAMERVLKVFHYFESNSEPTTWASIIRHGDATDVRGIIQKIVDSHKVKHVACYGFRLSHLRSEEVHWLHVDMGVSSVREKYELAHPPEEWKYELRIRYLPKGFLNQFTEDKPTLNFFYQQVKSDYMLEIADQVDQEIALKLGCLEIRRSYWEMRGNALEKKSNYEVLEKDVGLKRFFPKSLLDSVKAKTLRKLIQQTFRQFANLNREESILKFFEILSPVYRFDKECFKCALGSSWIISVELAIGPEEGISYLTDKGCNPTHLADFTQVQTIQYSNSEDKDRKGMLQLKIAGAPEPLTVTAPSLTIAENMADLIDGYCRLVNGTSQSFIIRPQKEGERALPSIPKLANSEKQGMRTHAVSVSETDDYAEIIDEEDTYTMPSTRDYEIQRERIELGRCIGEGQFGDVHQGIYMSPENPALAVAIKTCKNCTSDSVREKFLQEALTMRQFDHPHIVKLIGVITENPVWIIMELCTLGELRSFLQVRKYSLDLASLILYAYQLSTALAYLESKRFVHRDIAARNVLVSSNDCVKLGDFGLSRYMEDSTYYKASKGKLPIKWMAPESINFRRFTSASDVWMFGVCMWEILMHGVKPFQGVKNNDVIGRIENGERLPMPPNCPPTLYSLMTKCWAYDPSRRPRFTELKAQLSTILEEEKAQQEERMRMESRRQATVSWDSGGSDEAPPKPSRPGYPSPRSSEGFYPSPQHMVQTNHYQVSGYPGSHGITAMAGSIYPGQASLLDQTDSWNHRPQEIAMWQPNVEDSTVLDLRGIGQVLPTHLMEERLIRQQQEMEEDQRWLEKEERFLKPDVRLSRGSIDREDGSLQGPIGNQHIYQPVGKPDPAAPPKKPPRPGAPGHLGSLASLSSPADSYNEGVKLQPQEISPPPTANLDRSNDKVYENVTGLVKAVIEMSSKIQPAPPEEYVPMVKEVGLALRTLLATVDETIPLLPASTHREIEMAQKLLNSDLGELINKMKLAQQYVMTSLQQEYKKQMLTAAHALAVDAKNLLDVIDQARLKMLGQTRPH
SMILES,pIC50 (FAK recombinant protein),pIC50 (PC3 cells [1]),pIC50 (PC3 cells [2])
"COc1cc(N2CCC3(CCN(C)CC3)C2=O)c(F)cc1Nc1ncc(C(F)(F)F)c(Oc2cccc3c2C(=O)N(C)C3)n1 [Compound 61, 2-(2-fluoro-5-methoxy-4-((4-((2-methyl-3-oxoisoindol-4-yl)oxy)-5-(trifluoromethyl)pyrimidin-2-yl)amino)phenyl)-8-methyl-2,8-diazaspiro[4.5]decan-1-one]",> 8.00,< 5.70,7.30 to 8.30
COc1cc(N2CC3(CCN(C)CC3)OC2=O)c(F)cc1Nc1ncc(C(F)(F)F)c(Oc2cccc3c2C(=O)N(C)C3)n1 [Compound 63],7.30 to 8.00,< 5.70,7.30 to 8.30
COc1cc(N2CC3(CCC2=O)CCN(C)CC3)c(F)cc1Nc1ncc(C(F)(F)F)c(Oc2cccc3c2C(=O)N(C)C3)n1 [Compound 65],< 7.30,< 5.70,< 7.30
COc1cc(C2=NOC3(CCN(C)CC3)C2)ccc1Nc1ncc(C(F)(F)F)c(Oc2cccc3c2C(=O)N(C)C3)n1 [Compound 68],7.30 to 8.00,< 5.70,7.30 to 8.30
"COc1cc(C(=O)NC2CC3(CCN(C)CC3)C2)c(F)cc1Nc1ncc(C(F)(F)F)c(Oc2cccc3c2C(=O)N(C)C3C)n1 (stereo not drawn) [Compound 70, 4-((4-((1,2-dimethyl-3-oxoisoindol-4-yl)oxy)-5-(trifluoromethyl)pyrimidin-2-yl)amino)-2-fluoro-5-methoxy-N-(7-methyl-7-azaspiro[3.5]nonan-2-yl)benzamide]",> 8.00,< 5.70,> 8.30
COc1cc(C(=O)NC2CC3(CCN(C)CC3)C2)c(F)cc1Nc1ncc(C(F)(F)F)c(Oc2cccc3c2C(=O)N(C)C3(C)C)n1 [Compound 76],> 8.00,< 5.70,7.30 to 8.30
COc1cc(C(=O)NC2CC3(CCN(C)CC3)C2)c(F)cc1Nc1ncc(C(F)(F)F)c(Oc2cccc3c2C(=O)N(OC)C3)n1 [Compound 79],> 8.00,< 5.70,> 8.30
COc1cc(C(=O)NC2CC3(CCN(C)CC3)C2)c(F)cc1Nc1ncc(C(F)(F)F)c(Oc2cccc3c2C(=O)CC3)n1 [Compound 82],> 8.00,< 5.70,7.30 to 8.30
COc1cc(C(=O)NC2CC3(CCN(C)CC3)C2)c(F)cc1Nc1ncc(C(F)(F)F)c(Cc2cccc3c2C(=O)CC3)n1 [Compound 84],> 8.00,< 5.70,7.30 to 8.30
"CCc1cc(C(=O)NC2CC3(CCN(C)CC3)C2)c(F)cc1Nc1ncc(C(F)(F)F)c(Oc2cccc3c2C(=O)N(C)C3)n1 [Compound 85, 2-fluoro-4-((4-((2-methyl-3-oxoisoindol-4-yl)oxy)-5-(trifluoromethyl)pyrimidin-2-yl)amino)-N-(7-methyl-7-azaspiro[3.5]nonan-2-yl)-5-ethylbenzamide]",7.30 to 8.00,< 5.70,7.30 to 8.30
COc1cc(C(=O)NC2CC3(CCN(C)CC3)C2)c(-c2cnn(C)c2)cc1Nc1ncc(C(F)(F)F)c(Oc2cccc3c2C(=O)N(C)C3)n1 [Compound 88],7.30 to 8.00,< 5.70,7.30 to 8.30
COc1cc(N2CCC3(CC2)CN(C)C3)c(F)cc1Nc1ncc(C(F)(F)F)c(Oc2cccc3c2C(=O)N(C)C3)n1 [Compound 91],> 8.00,< 5.70,> 8.30
COc1cc(N2CCC3(CCN(C)CC3)CC2)c(F)cc1Nc1ncc(C(F)(F)F)c(Oc2cccc3c2C(=O)N(C)C3)n1 [Compound 93],> 8.00,< 5.70,> 8.30
COc1cc(N2CCC3(CCN(C)C3)CC2)ccc1Nc1ncc(C(F)(F)F)c(Oc2cccc3c2C(=O)N(C)C3)n1 [Compound 95],> 8.00,< 5.70,> 8.30
COc1cc(N2CCC3(CCN(C)CC3)C2)ccc1Nc1ncc(C(F)(F)F)c(Oc2cccc3c2C(=O)N(C)C3)n1 [Compound 96],> 8.00,< 5.70,> 8.30
COc1cc(N2CCC23CCN(C)CC3)ccc1Nc1ncc(C(F)(F)F)c(Oc2cccc3c2C(=O)N(C)C3)n1 [Compound 97],> 8.00,< 5.70,> 8.30
CCN1CCC2(CC1)CN(c1ccc(Nc3ncc(C(F)(F)F)c(Oc4cccc5c4C(=O)N(C)C5)n3)c(OC)c1)C2 [Compound 103],> 8.00,< 5.70,> 8.30
COc1cc(N2CC3(CCN(C4CCC4)CC3)C2)ccc1Nc1ncc(C(F)(F)F)c(Oc2cccc3c2C(=O)N(C)C3)n1 [Compound 105],> 8.00,< 5.70,> 8.30
"COc1cc(N2CC3(CCNCC3)C2)c(F)cc1Nc1ncc(C(F)(F)F)c(Oc2cccc3c2C(=O)N(C)C3)n1 [Compound 107, 7-((2-((5-fluoro-2-methoxy-4-(2,7-diazaspiro[3.5]non-2-yl)phenyl)amino)-5-(trifluoromethyl)pyrimidin-4-yl)oxy)-2-methylisoindolin-1-one]",> 8.00,< 5.70,> 8.30

# Now from value to compound:
pIC50 (FAK recombinant protein),pIC50 (PC3 cells [1]),pIC50 (PC3 cells [2]),SMILES
> 8.00,< 5.70,7.30 to 8.30,COc1cc(C(=O)NC2CCC3(CC2)CN(C)C3)c(F)cc1Nc1ncc(C(F)(F)F)c(Cc2cccc3c2C(=O)N(C)C3)n1 [Compound 50]
> 8.00,< 5.70,7.30 to 8.30,COc1cc(C(=O)NC2CCC3(CC2)CCN(C)C3)c(F)cc1Nc1ncc(C(F)(F)F)c(Cc2cccc3c2C(=O)N(C)C3)n1 (stereo not drawn) [Compound 53]
7.30 to 8.00,< 5.70,7.30 to 8.30,COc1cc(C(=O)NC2CCC3(CC2)CCN(C)CC3)c(F)cc1Nc1ncc(C(F)(F)F)c(Cc2cccc3c2C(=O)N(C)C3)n1 [Compound 54]
> 8.00,< 5.70,> 8.30,COc1cc(C(=O)NC2CC3(CCN(C)CC3)C2)c(Cl)cc1Nc1ncc(C(F)(F)F)c(Cc2cccc3c2C(=O)N(C)C3)n1 [Compound 55]
> 8.00,< 5.70,7.30 to 8.30,COc1cc(C(=O)NC2CCC3(CC2)CN(C)C3)c(Cl)cc1Nc1ncc(C(F)(F)F)c(Cc2cccc3c2C(=O)N(C)C3)n1 [Compound 56]
> 8.00,< 5.70,> 8.30,COc1cc(C(=O)NC2CC3(CCN(C)CC3)C2)ccc1Nc1ncc(C(F)(F)F)c(Cc2cccc3c2C(=O)N(C)C3)n1 [Compound 57]
> 8.00,< 5.70,7.30 to 8.30,COc1cc(C(=O)NC2CCC3(CC2)CN(C)C3)ccc1Nc1ncc(C(F)(F)F)c(Cc2cccc3c2C(=O)N(C)C3)n1 [Compound 58]
> 8.00,< 5.70,> 8.30,COc1cc(C(=O)NC2CC3(CCN(C)CC3)C2)ccc1Nc1ncc(C(F)(F)F)c(Oc2cccc3c2C(=O)N(C)C3C)n1 (stereo not drawn) [Compound 72]
> 8.00,< 5.70,7.30 to 8.30,COc1cc(C(=O)NC2CCC3(CC2)CN(C)C3)ccc1Nc1ncc(C(F)(F)F)c(Oc2cccc3c2C(=O)N(C)C3C)n1 (stereo not drawn) [Compound 73]
> 8.00,< 5.70,7.30 to 8.30,"COc1cc(C(=O)NC2CC3(CCN(C)CC3)C2)c(F)cc1Nc1ncc(C(F)(F)F)c(Cc2cccc3c2C(=O)N(C)C3C)n1 (stereo not drawn) [Compound 74, 4-((4-((1,2-dimethyl-3-oxoisoindol-4-yl)methyl)-5-(trifluoromethyl)pyrimidin-2-yl)amino)-2-fluoro-5-methoxy-N-(7-methyl-7-azaspiro[3.5]nonan-2-yl)benzamide]"
> 8.00,< 5.70,7.30 to 8.30,COc1cc(C(=O)NC2CC3(CCN(C)CC3)C2)ccc1Nc1ncc(C(F)(F)F)c(Cc2cccc3c2C(=O)N(C)C3C)n1 (stereo not drawn) [Compound 75]
> 8.00,< 5.70,7.30 to 8.30,COc1cc(C(=O)NC2CCC3(CC2)CN(C)C3)c(F)cc1Nc1ncc(C(F)(F)F)c(Oc2cccc3c2C(=O)N(C)C3(C)C)n1 [Compound 77]
> 8.00,< 5.70,7.30 to 8.30,COc1cc(C(=O)NC2CC3(CCN(C)CC3)C2)ccc1Nc1ncc(C(F)(F)F)c(Oc2cccc3c2C(=O)N(C)C3(C)C)n1 [Compound 78]
> 8.00,< 5.70,> 8.30,COc1cc(C(=O)NC2CC3(CCN(C)CC3)C2)ccc1Nc1ncc(C(F)(F)F)c(Oc2cccc3c2C(=O)N(OC)C3)n1 [Compound 81]
> 8.00,< 5.70,7.30 to 8.30,COc1cc(C(=O)NC2CC3(CCN(C)CC3)C2)ccc1Nc1ncc(C(F)(F)F)c(Oc2cccc3c2C(=O)CC3)n1 [Compound 83]
> 8.00,< 5.70,> 8.30,COc1cc(N2CCC3(CCN(C)C3)C2)ccc1Nc1ncc(C(F)(F)F)c(Oc2cccc3c2C(=O)N(C)C3)n1 (stereo not drawn) [Compound 98]
> 8.00,< 5.70,> 8.30,COc1cc(N2CC3(CCN(C4CC4)CC3)C2)ccc1Nc1ncc(C(F)(F)F)c(Oc2cccc3c2C(=O)N(C)C3)n1 [Compound 104]
> 8.00,< 5.70,> 8.30,COc1cc(N2CC3(CCN(CC4CC4)CC3)C2)ccc1Nc1ncc(C(F)(F)F)c(Oc2cccc3c2C(=O)N(C)C3)n1 [Compound 106]
